Data set [1] can be described thus: Inhibition of B0AT1 (unknown origin) by radiolabled uptake assay. Details: species or system Homo sapiens; call rule not given here.
Data set [2] is described as follows: Inhibition of B0AT1 (unknown origin) by FLIPR assay. Set-up: species or system Homo sapiens.
A short description of data set [3]: Bioavailability in C57BL/6 mouse at 1 mg/kg, iv. To be noted: in vivo. In kind it is ADME, organism-based.
Data set [4] is described as follows: Metabolic stability in dog liver microsomes. In kind it is ADME, Canis lupus familiaris, Microsome.
Data set [5] can be described thus: Half life in C57BL/6 mouse at 1 mg/kg, iv. It is filed as ADME, organism-based. The following applies: in vivo.
The nature of data set [6]: Metabolic stability in human liver microsomes. In kind it is ADME, Microsome.
Data set [7] in a line: AUC (0 to t) in C57BL/6 mouse at 1 mg/kg, iv. In kind it is ADME, organism-based. Set-up: dose 1 mg/kg. To be noted: in vivo.
The nature of data set [8]: Clearance in C57BL/6 mouse at 1 mg/kg, iv. In kind it is ADME, organism-based. The following applies: in vivo.
Data set [9] is described as follows: Half life in C57BL/6 mouse at 3 mg/kg, po. In kind it is ADME, organism-based. The following applies: in vivo.
In data set [10] the target is Cytochrome P450 2C9 (Homo sapiens, UniProt P11712). As to the kind of experiment: Inhibition of CYP2C9 (unknown origin). In kind it is ADME.
Sequence of Cytochrome P450 2C9 (P11712 whole entry): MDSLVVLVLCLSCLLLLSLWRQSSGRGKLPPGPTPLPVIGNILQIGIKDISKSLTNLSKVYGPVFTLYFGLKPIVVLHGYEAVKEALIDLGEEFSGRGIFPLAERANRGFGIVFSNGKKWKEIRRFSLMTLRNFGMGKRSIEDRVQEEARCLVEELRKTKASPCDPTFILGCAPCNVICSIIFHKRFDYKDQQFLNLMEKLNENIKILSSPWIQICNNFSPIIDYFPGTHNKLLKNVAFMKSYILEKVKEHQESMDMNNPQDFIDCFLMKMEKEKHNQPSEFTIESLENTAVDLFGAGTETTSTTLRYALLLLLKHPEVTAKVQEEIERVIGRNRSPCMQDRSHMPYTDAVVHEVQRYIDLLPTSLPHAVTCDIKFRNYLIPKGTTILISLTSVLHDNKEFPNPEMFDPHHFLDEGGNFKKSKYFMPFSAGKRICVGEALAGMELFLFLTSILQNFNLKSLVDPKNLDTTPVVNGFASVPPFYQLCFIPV
A short description of data set [11]: Tmax in C57BL/6 mouse at 3 mg/kg, po. In kind it is ADME, organism-based. To be noted: in vivo.
Data set [12] in a line: Volume of distribution at steady state in C57BL/6 mouse at 1 mg/kg, iv. It is filed as ADME, organism-based. To be noted: in vivo, read-out: Vdss.
The nature of data set [13]: MRT in C57BL/6 mouse at 3 mg/kg, po. It is filed as ADME, organism-based. To be noted: in vivo.
For data set [14], the target named is Cytochrome P450 2C19 (Homo sapiens, UniProt P33261). In words: Inhibition of CYP2C19 (unknown origin). In kind it is ADME.
Sequence of Cytochrome P450 2C19 (P33261 whole entry): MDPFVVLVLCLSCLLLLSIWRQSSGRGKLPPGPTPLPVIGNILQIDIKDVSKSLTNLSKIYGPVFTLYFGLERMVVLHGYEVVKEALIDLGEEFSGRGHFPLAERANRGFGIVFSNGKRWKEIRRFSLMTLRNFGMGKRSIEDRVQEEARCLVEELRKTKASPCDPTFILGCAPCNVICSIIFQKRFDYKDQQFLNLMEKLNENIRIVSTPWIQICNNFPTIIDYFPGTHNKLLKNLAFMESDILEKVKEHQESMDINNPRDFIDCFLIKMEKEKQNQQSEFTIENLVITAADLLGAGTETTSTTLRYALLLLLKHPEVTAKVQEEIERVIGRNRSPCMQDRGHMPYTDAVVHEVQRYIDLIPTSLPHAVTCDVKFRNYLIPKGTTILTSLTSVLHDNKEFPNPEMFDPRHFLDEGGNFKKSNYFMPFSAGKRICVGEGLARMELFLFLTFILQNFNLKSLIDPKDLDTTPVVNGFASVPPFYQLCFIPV
Data set [15] in a line: Initial plasma concentration in C57BL/6 mouse at 1 mg/kg, iv. In kind it is ADME, organism-based.
In data set [16] the test system is Mus musculus. As to the kind of experiment: Anti-obesity activity in C57BL/6J mouse model of diet-induced obesity assessed as reduction in area under curve at 25 mg/kg, po dosed once daily for 28 days by insulin tolerance test. In kind it is functional. Set-up: scale not given: the % may be the effect or the level left. The following applies: time 28 day.
Data set [17] addresses T1, Cytochrome P450 2C8 (Homo sapiens, UniProt P10632).
T1 sequence (P10632 whole entry): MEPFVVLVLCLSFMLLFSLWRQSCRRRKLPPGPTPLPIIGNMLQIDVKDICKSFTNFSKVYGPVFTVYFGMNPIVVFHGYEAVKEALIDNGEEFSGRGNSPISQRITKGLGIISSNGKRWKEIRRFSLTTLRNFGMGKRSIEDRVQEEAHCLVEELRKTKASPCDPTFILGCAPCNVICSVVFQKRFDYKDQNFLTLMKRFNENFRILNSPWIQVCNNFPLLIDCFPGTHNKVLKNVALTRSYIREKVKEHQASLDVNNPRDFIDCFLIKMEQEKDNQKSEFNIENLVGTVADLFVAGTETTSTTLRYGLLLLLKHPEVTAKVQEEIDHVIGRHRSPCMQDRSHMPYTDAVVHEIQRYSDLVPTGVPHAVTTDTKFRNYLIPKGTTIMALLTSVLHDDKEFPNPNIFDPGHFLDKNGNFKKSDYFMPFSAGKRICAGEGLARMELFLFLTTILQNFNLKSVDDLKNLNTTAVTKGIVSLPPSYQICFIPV
As to the kind of experiment: Inhibition of CYP2C8 (unknown origin). It is filed as ADME.

The nature of data set [18]: MRT in C57BL/6 mouse at 1 mg/kg, iv. The following applies: in vivo. It is filed as ADME, organism-based.
For data set [19], the target named is Cytochrome P450 3A4 (Homo sapiens, UniProt P08684). As to the kind of experiment: Inhibition of CYP3A4 (unknown origin). In kind it is ADME.
Sequence of Cytochrome P450 3A4 (P08684 whole entry): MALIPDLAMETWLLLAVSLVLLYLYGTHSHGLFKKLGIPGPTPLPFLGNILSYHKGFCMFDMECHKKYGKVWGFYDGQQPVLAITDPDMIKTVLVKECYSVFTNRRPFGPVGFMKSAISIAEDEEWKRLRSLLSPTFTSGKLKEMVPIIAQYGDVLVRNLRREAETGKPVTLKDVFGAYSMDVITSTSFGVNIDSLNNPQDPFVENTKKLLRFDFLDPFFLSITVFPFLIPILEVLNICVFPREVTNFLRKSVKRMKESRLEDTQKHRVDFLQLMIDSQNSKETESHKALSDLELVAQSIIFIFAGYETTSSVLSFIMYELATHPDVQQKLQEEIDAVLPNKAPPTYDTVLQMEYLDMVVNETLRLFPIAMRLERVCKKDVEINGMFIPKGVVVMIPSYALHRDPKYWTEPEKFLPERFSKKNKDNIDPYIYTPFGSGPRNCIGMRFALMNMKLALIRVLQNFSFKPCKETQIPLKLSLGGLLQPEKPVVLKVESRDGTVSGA
The nature of data set [20]: AUC (0 to t) in C57BL/6 mouse at 3 mg/kg, po. In kind it is ADME, organism-based. Set-up: dose 3 mg/kg. The following applies: in vivo.
Data set [21] in a line: Cmax in C57BL/6 mouse at 3 mg/kg, po. In kind it is ADME, organism-based. Details: route oral, dose 3 mg/kg. To be noted: in vivo.
Data set [22] concerns Mus musculus. As to the kind of experiment: Anti-obesity activity in high fat diet induced C57BL/6J mouse model assessed as change in body weight at 25 mg/kg, po dosed once daily for 28 days. It is filed as functional. The following applies: time 28 day.
Data set [23] in a line: Metabolic stability in mouse liver microsomes. It is filed as ADME, Microsome.
A short description of data set [24]: Metabolic stability in rat liver microsomes. In kind it is ADME, Microsome.

Here are results for 49 compounds from ChEMBL document CHEMBL5036351, “Discovery of novel, potent and orally efficacious inhibitor of neutral amino acid transporter B0AT1 (SLC6A19)” (Bioorg Med Chem Lett, 2021).

SMILES strings stand for the structures. Where only a bound is given, the exact number is not on record here.

In data set [1], `O=[N+]([O-])c1ccc(NS(=O)(=O)c2ccccc2)c(Oc2ccccc2)c1` registered an IC50 of 200 nM. Still for that read-out and setting: then `Cc1cccc(Oc2cc(S(=O)(=O)C(F)(F)F)ccc2NS(=O)(=O)c2ccccc2)c1`, with 1000 nM. Still for that read-out and setting: as for `O=S(=O)(Nc1ccc(S(=O)(=O)C(F)F)cc1Oc1ccccc1)c1ccccc1`, the figure is above 10000 nM; as for `O=S(=O)(Nc1ccc(S(=O)(=O)C(F)(F)F)cc1Oc1cccc(F)c1)c1ccccc1`, 150 nM. On the same count and under the same terms, then `O=S(=O)(Nc1ccc(S(=O)(=O)C(F)(F)F)cc1Nc1ccccc1)c1ccccc1`, with 690 nM. With `Cc1cc(C(=O)Nc2ccc(Cl)cc2C(F)(F)F)no1`, the results for the IC50 in [2] and in data set [1] were 1900 nM and 3900 nM, respectively. Regarding `CS(=O)(=O)c1ccc(NS(=O)(=O)c2ccccc2)c(Oc2ccccc2)c1`, in data set [1], the IC50 was above 10000 nM. Still for that read-out and setting: as for `O=S(=O)(Nc1ccc(S(=O)(=O)C(F)(F)F)cc1Oc1ccc(C(F)(F)F)cc1)c1ccccc1`, the figure is 520 nM.

In the case of `N=C(NO)c1ccc(NS(=O)(=O)c2ccccc2)c(Oc2ccccc2)c1`, the concentration for half-maximal inhibition (IC50) in data set [1] was above 10000 nM. As to `O=S(=O)(Nc1ccc(S(=O)(=O)C(F)(F)F)cc1Oc1ccc(F)c(F)c1)c1ccccc1`, in data set [1], the IC50 came out at 90 nM. The same measure, in the same setting: as for `O=C(NO)c1ccc(NS(=O)(=O)c2ccccc2)c(Oc2ccccc2)c1`, the figure is above 10000 nM. On the same count and under the same terms, as for `Cc1cc(C)cc(Oc2cc(S(=O)(=O)C(F)(F)F)ccc2NS(=O)(=O)c2ccccc2)c1`, the figure is 440 nM; as for `O=S(=O)(Nc1ccc(S(=O)(=O)C(F)(F)F)cc1C(O)c1ccccc1)c1ccccc1` (configuration not stated), 320 nM. Still for that read-out and setting: as for `O=S(=O)(Nc1ccc(S(=O)(=O)C(F)(F)F)cc1Oc1cccnc1)c1ccccc1`, the figure is above 1000 nM. `O=S(=O)(Nc1ccc(F)cc1Oc1ccccc1)c1ccccc1` had an IC50 in data set [1] above 10000 nM. In data set [1], `NC(=O)c1ccc(NS(=O)(=O)c2ccccc2)c(Oc2ccccc2)c1` returned an IC50 above 10000 nM. On the same count and under the same terms, then `O=S(=O)(Nc1ccc(S(=O)(=O)C(F)(F)F)cc1S(=O)(=O)c1ccccc1)c1ccccc1`, with above 1000 nM. The same measure, in the same setting: then `O=S(=O)(Nc1ccc(-c2nn[nH]n2)cc1Oc1ccccc1)c1ccccc1`, with above 10000 nM; and `Cc1ccc(Oc2cc(S(=O)(=O)C(F)(F)F)ccc2NS(=O)(=O)c2ccccc2)cc1`, with above 1000 nM. On the same count and under the same terms, as for `O=C(O)c1ccc(NS(=O)(=O)c2ccccc2)c(Oc2ccccc2)c1`, the figure is above 10000 nM.

The compound `COc1cccc(Oc2cc(S(=O)(=O)C(F)(F)F)ccc2NS(=O)(=O)c2ccccc2)c1` gave an IC50 in data set [1] of 460 nM. The same measure, in the same setting: as for `CN(C)c1cccc(Oc2cc(S(=O)(=O)C(F)(F)F)ccc2NS(=O)(=O)c2ccccc2)c1`, the figure is above 1000 nM.

As for `O=S(=O)(Nc1ccc(S(=O)(=O)C(F)(F)F)cc1Oc1ccc(Cl)c(Cl)c1)c1ccccc1`, the IC50 in data set [1] amounted to 1000 nM. In [1], `N#Cc1ccc(NS(=O)(=O)c2ccccc2)c(Oc2ccccc2)c1` had an IC50 above 10000 nM. On the same count and under the same terms, then `COc1cc(F)cc(Oc2cc(S(=O)(=O)C(F)(F)F)ccc2NS(=O)(=O)c2ccccc2)c1`, with 100 nM. Still for that read-out and setting: then `O=C(Nc1ccccc1)c1cc(S(=O)(=O)C(F)(F)F)ccc1NS(=O)(=O)c1ccccc1`, with above 1000 nM. For `c1ccc(CCCN2CCCCC2Cc2ccccc2)cc1` (configuration not stated), the IC50 worked out at 90000 nM in data set [2] and 78000 nM in [1]. In data set [1], `CS(=O)(=O)Nc1ccc([N+](=O)[O-])cc1Oc1ccccc1` [NIMESULIDE] had an IC50 of 23000 nM. For the compound `COc1ccc(C(CCCN2CCOCC2)c2ccc(C)cc2)cc1` (configuration not stated), the IC50 in [2] is 20000 nM; in [1] it was 16000 nM. Taken in the same sequence, the figures for `CN1C2CCC1CC(OC(c1ccccc1)c1ccccc1)C2` (configuration not stated) were 44000 nM and 71000 nM. With `O=S(=O)(Nc1ccc(S(=O)(=O)C(F)(F)F)cc1Oc1cc(F)cc(F)c1)c1ccccc1`, the bioavailability in data set [3] is 64%. Besides, the Stability result in data set [4], in data set [6], in [23] and in data set [24] was “Stable” in each case. In addition, the half-life in [5] is 4.05 h; in data set [9], 5.39 h. In addition, the AUC(0-t) in data set [7] was 16200 ng·h/mL; in data set [20] it was 31300 ng·h/mL. This compound displayed a clearance in data set [8] of 1.01 mL/min/kg. In addition, the “inhibition (INH)” value in [10], in [14], in data set [17] and in data set [19] was “Active” each time. Further, the Tmax in data set [11] was determined as 2 h. Further, in data set [12], the Vd amounted to 0.35 L/kg. Moreover, the mean residence time (MRT) in data set [13] is 6.73 h; in data set [18], 5.74 h. Further, the C0 in data set [15] worked out at 6680 ng/mL. Further, the Activity is reported as 22.9% in data set [16] and -8.9% in [22]. In [21], the Cmax worked out at 3770 ng/mL. The compound further came in with an IC50 in data set [1] of 35 nM. The compound `O=S(=O)(Nc1ccc(S(=O)(=O)C(F)(F)F)cc1OC1CCCCC1)c1ccccc1` displayed an IC50 in data set [1] above 1000 nM.

In data set [1], `N#Cc1ccc(Oc2cc(S(=O)(=O)C(F)(F)F)ccc2NS(=O)(=O)c2ccccc2)cc1` returned an IC50 above 1000 nM. In data set [1], `COC(=O)c1ccc(NS(=O)(=O)c2ccccc2)c(Oc2ccccc2)c1` displayed an IC50 above 10000 nM. Still for that read-out and setting: as for `O=S(=O)(Nc1ccc(C(F)(F)F)cc1Oc1ccccc1)c1ccccc1`, the figure is above 10000 nM; as for `COc1ccc(Oc2cc(S(=O)(=O)C(F)(F)F)ccc2NS(=O)(=O)c2ccccc2)cc1`, 600 nM. On the same count and under the same terms, as for `O=S(=O)(Nc1ccc(S(=O)(=O)C(F)(F)F)cc1Oc1ccc(F)cc1)c1ccccc1`, the figure is 200 nM.

`O=S(=O)(Nc1ccc(S(=O)(=O)C(F)(F)F)cc1-c1ccccc1)c1ccccc1` registered an IC50 in [1] of 370 nM. Take `O=S(=O)(Nc1ccc(S(=O)(=O)C(F)(F)F)cc1Oc1ccc(Cl)cc1)c1ccccc1`: the IC50 in data set [1] is above 1000 nM. With `CCNC(=O)/C=C/c1cccc(Br)c1` [CINROMIDE], the values for the IC50 in data set [2] and in data set [1] were 280 nM and 370 nM, respectively. Take `CCc1ccc(CCOc2ccc(CC3SC(=O)NC3=O)cc2)nc1` (configuration not stated) [PIOGLITAZONE]: the Activity is -36% in data set [16] and 6% in data set [22]. `O=C(c1ccccc1)c1cc(S(=O)(=O)C(F)(F)F)ccc1NS(=O)(=O)c1ccccc1` registered an IC50 in data set [1] of 600 nM. As for `NC(c1ccccc1)c1cc(S(=O)(=O)C(F)(F)F)ccc1NS(=O)(=O)c1ccccc1` (configuration not stated), the IC50 in [1] was above 1000 nM.

`O=S(=O)(Nc1ccc(S(=O)(=O)C(F)(F)F)cc1Sc1ccccc1)c1ccccc1` had an IC50 in data set [1] of 800 nM. Still for that read-out and setting: as for `O=S(=O)(Nc1ccc(S(=O)(=O)C(F)(F)F)cc1Oc1cccc(Cl)c1)c1ccccc1`, the figure is above 1000 nM; as for `O=S(=O)(Nc1ccc(S(=O)(=O)C(F)(F)F)cc1OCc1ccccc1)c1ccccc1`, 1000 nM.

The compound `N=C(N)c1ccc(NS(=O)(=O)c2ccccc2)c(Oc2ccccc2)c1` gave an IC50 in data set [1] above 10000 nM.

Turning to `O=S(=O)(Nc1ccc(S(=O)(=O)C(F)(F)F)cc1Oc1ccccc1)c1ccccc1`, 190 nM corresponded to half-maximal inhibition in data set [1] (IC50). On the same count and under the same terms, then `COc1ccc(Oc2cc(S(=O)(=O)C(F)(F)F)ccc2NS(=O)(=O)c2ccccc2)cc1OC`, with above 1000 nM.
